Consider one compound from patent US20220023227A1, “SYSTEMS AND METHODS FOR FORMING NANOCAPSULES BY PULSED ELECTROSPRAYING” (priority 2020, published 2022).

The subject of experiment [1] is 4T1 tumor cells. The experiment can be described thus: Metastatic outgrowth of disseminated 4T1 tumor cells, mice euthanized 72h after last injection. Format: in vivo. The text has this: Mice were sacrificed 3 days after the last dose injection to check the metastatic colonization of luciferase expressing 4T1 tumor cells. […] Results are presented as mean±SD (3 mice in each group).
(§1) Murine 4T1 cells were originally isolated from a spontaneous mammary tumor in the BALB/c strain and have been reported to show characteristics of human triple-negative breast cancer (TNBC) subtype. We first implanted 50,000 4T1 tumor cells into mammary fat pad of syngeneic mice and started treatment one-week post-implantation. After 3 doses by injection (one dose/week), the treatment was terminated and mice were followed for tumor growth and survival. […] Second set of mice euthanized to examine metastatic colonization of tumor cells in the lungs 72h after the last injection.

Experiment [2] has as its system 4T1 tumor cells. The experiment can be described thus: 4T1 mammary fat pad tumor growth and survival after 3 weekly doses. It is filed as in vivo, BALB/c mice. The protocol: Highly aggressive 4T1 tumor cells were implanted into 4th mammary fat pad of BALB/c mice and treatment was started one week post-implantation and total 3 doses (one dose/week) were injected. […] Results are presented as mean±SD (3-5 mice in each group).
as §1

“Also recorded” adds a separate entry of the source.

As to `CC(=O)O[C@H]1C(=O)[C@@]2(C)[C@H]([C@H](OC(=O)c3ccccc3)[C@]3(O)C[C@H](OC(=O)[C@H](O)[C@@H](NC(=O)c4ccccc4)c4ccccc4)C(C)=C1C3(C)C)[C@]1(OC(C)=O)CO[C@@H]1C[C@@H]2O` [naked paclitaxel, paclitaxel], the “metastatic colonization of tumor cells in the lungs (ex vivo lung imaging)” value with 4T1 tumor cells [1] (72h after the last injection, 3 mice in each group, FIG. 2d-e) was “micro metastatic colonization; also recorded: only micro metastases”. In the experiment with 4T1 tumor cells [1] (IP-injection, 72h after the last injection, FIG. 2a-b), the tumor weight entry is “decreased the tumor weight but this decrease was not significant; also recorded: decrease the tumor weight”. Further, the “signal intensity of luciferase in lungs, difference between groups” value in the experiment with 4T1 tumor cells [1] (ex vivo lung imaging, FIG. 2d-e) is “not significantly different”. Besides, the “survival compared with tumor bearing mice that did not have any treatment” value with 4T1 tumor cells [2] (3 doses, one dose/week) is “longer”. Further, the “tumor size, difference between groups” value in the experiment on 4T1 tumor cells [2] (up to 42 days, FIG. 1b) was “no significant difference”.
